Measurements as given in US20210071180A1, “MICRORNA 584-5P COMPOSITIONS AND METHODS FOR TREATING CANCER” (BOARD OF REGENTS, THE UNIVERSY OF TEXAS SYSTEM, priority 2018, published 2021).

Tests used:
Type in all cases: cell-based
MB cells [1] = assay: FACS analysis of cell cycle progression; settings: vs miR-NC or scramble-siRNA
Procedure: To gain more insight into the tumor-suppressing and VCR-sensitizing activities of miR-584-5p, it was determined how the miR-584-5p mimic affected cell cycle progression of MB cells. […] Bar graphs show DNA histograms quantified using the FlowJo software. In FIG. 9A, the p-values were determined by two-way ANOVA followed by Tukey's multiple-comparisons test. Error bars represent mean±SEM. […] In FIG. 9B, the p-values were calculated using standard Student t-tests. Error bars represent mean±SEM. […] Next, it was determined whether miR-584-5p's effect on cell cycle progression may be mediated via its target genes eIF4E3/HDAC1. […] Bar graphs show dot plots quantified using the FlowJo software. Next, it was tested whether miR-584-5p-induced cell cycle arrest led to apoptosis of MB cells. […] In FIG. 8C, the bar graphs reflect DNA histograms quantified using the FlowJo software and in FIG. 8D and FIG. 9C, the bar graphs show dot plots quantified using the FlowJo software. The p-values for panels 8A-D and FIG. 9C were determined by two-way ANOVA followed by Tukey's multiple-comparisons test. Error bars represent mean±SEM. ****, p<0.0001; ***, p<0.001; **, p<0.01; *, p<0.05.
Flow cytometry analysis of cell cycle and apoptosis. […] Cells were analyzed using either FACScantoII or LSRII cytometers, and data were quantified using FlowJo 10.2 software.

MB cells [2] = assay: IR dose-response, alamarBlue cell viability assay; settings: IR for 24 hours, normalized to 0 Gy
Source text: FIG. 13C-D show representative immunofluorescence images showing 53BP1 foci in D556Med cells transfected with miR-NC or miR-584-5p mimic (C) or scramble-siRNA or eIF4E3/HDAC1-siRNAs (D) and treated with or without 10 Gy of IR.
VCR is routinely used during and after radiation therapy to treat MB patients (Packer, R. J. et al. J Neurosurg 74, 433-440, (1991)), mainly because microtubule-targeting agents such as VCR enhances the toxic effects of DNA-damaging agents, including radiation (Poruchynsky, M. S. et al. Proc Natl Acad Sci USA 112, 1571-1576, (2015); and Oehler, C. et al. Neuro Oncol 13, 1000-1010, doi:10.1093/neuonc/nor069 (2011)). Moreover, cells in G2/M phase are the most sensitive to IR (Pawlik, T. M. & Keyomarsi, K. Int J Radiat Oncol Biol Phys 59, 928-942, (2004)). […] All values were normalized to 0 Gy. […] Error bars represent mean±SEM. Next, it was determined whether eIF4E3 or HDAC1 may mediate miR-584-5p's IR response. […] All values were normalized to 0 Gy. […] Error bars represent mean±SEM.

[3] = tested on: D425Med and D458Med cells; assay: Gene expression profiling (Illumina HT-12 v4 BeadChip)
Procedure: Data are z-transformed. The cutoff criteria for each gene are fold change >2, sample intensity >10, and p-value <0.05. […] To validate the gene expression analysis and target prediction results, it was determined whether miR-584-5p reduced HDAC1/eIF4E3 expression by binding to their 3′-untranslated regions (3′-UTRs). […] Also shown are the portion of the miR-584-5p sequence (SEQ ID NO: 15; UAUGGUU) that binds to the wild-type 3′UTR and seed sequence mutant (SEQ ID NO: 16; […], top panel; and SEQ ID NO: 17; […]; bottom panel). Also shown is miR-584-5p seed sequence mutated sequences. […] Values were normalized to firefly luciferase, which served as an internal control. The p-values were calculated using standard Student t-tests. Error bars represent mean±SEM. […] The p-values were calculated using standard Student t-tests.

U20S-DR-GFP cells = assay: ISceI-based DR-GFP reporter assay of homologous recombination; settings: cells stably expressing DR-GFP reporter, FACS
Procedure: Bar graphs next to images show average number of 53BP1 foci/cell. The p-values were determined by two-way ANOVA followed by Sidak's multiple-comparisons test. Error bars represent mean±SEM. Because miR-584-5p induces apoptosis, it was reasoned that DNA strand breaks induced by miR-584-5p and eIF4E3/HDAC1 silencing may not be properly repaired. To confirm those findings, a functional assay was performed to monitor homologous recombination (HR) because HR-dependent events repair IR-induced double-strand breaks in G2 phase. The ISceI-based DR-GFP reporter assay, which measures the frequency of double-strand break repair by HR (Gunn, A., Bennardo, N., Cheng, A. & Stark, J. M. Journal of Biological Chemistry 286, 42470-42482, (2011); Pierce, A. J., Johnson, R. D., Thompson, L. H. & Jasin, M. Genes & Development 13, 2633-2638, (1999); and Stark, J. M., Pierce, A. J., Oh, J., Pastink, A. & Jasin, M. Molecular and Cellular Biology 24, 9305-9316, (2004)), was used. […] U20S-DR-GFP cells were transfected with miR-NC or miR-584-5p or scramble-siRNA or eIF4E3/HDAC1-siRNAs followed by transfection with pCAGGS vector with ISceI/GFP. I-SceI expression leads to double-strand breaks that HR repairs by using the wild-type GFP, resulting in GFP^+ cells. […] The p-values were calculated using either Student t-tests (mimic) or one-way ANOVA followed by Dunnett's multiple-comparisons test (siRNAs). […]

normal neural stem cell = assay: Normal neural stem cell growth

In the case of “miR-584-5p: microRNA mimic; nucleotide sequence UUAUGGUUUGCCUGGGACUGAG (SEQ ID NO: 1); purchased from Thermofisher (chemistry not given here)”, the cell cycle progression (MB cells [1]) is reported as “G2/M cell cycle arrest”, the “sensitivity to IR relative to scrambled-transfected cells” value (MB cells [2]) is reported as 10 fold and the TUBB4 expression ([3]; confirmed by real-time PCR) is reported as “among the highly downregulated genes”. For the same substance, the FOXO1 levels ([3]; miR-584-5p-treated MB cells) was “did not change”, the “GFP-positive cells (homologous recombination events)” value (U20S-DR-GFP cells) was “significantly fewer GFP-positive cells” and the “normal neural stem cell growth” value (normal neural stem cell) was “without affecting normal neural stem cell growth”.
